Data taken from PMC8413904 (Pharmacology Research & Perspectives, 2021).
Read-outs that look alike come from different tables or passages of the source. Each block holds one molecule with its values, some of them ahead of it.

Columns and labels:
[1] = tested on: cultured rat brain cortical neurons; experiment: Dynamic calcium assay (Fluo‐8); assay type: cell-based
Description: (§1) All animal experimental procedures and housing have been approved by the Institutional Animal Care and Use Committee (IACUC) protocol #18‐015 of Virginia Tech. Embryonic day 18 (E18) rat brain tissue samples were obtained from adult pregnant SD rats. Rat brain primary cortical, striatal, and cerebellar neurons were cultured on poly‐d‐lysine coated 96‐well plates for 14 days in vitro (DIV14) before using for the experiments. Primary rat neuron culture was performed as previously published.[44] Briefly, each well of a 96 well plate was loaded with 50 000 cells and grown in 200 µl neurobasal media supplemented with B27, glutamax, penicillin, streptomycin. One hundred microliters of media was replaced with fresh media once in 4 days. Eight to thirteen fetus were obtained from each pregnant rat. Brain tissue from these fetus were pooled to obtain the neurons. Cortical, striatal, and cerebellar neuron assays were carried out at different time points.
Dynamic calcium assay was carried out, using Fluo‐8 no‐wash kit (abcam, ab112129), as per the manufacturer's instructions with minor modifications to fit with experimental necessities. On DIV14, all 200 μl of media was removed and replaced it with 100 μl of HBSS and 100 μl of Fluo‐8 dye loading solution. The plates were incubated at 37°C for 30 min and at room temperature for 30 min. […] Costar 96‐well clear bottom black side plates were read from the bottom, nine times, with 60 s intervals between each read. Temperature was set at 37°C and reading speed was 100 ms.

[2] = tested on: cultured rat brain cortical neurons; experiment: Na^+ assay (CoroNa green‐AM); assay type: cell-based
Description: as §1
For Na^+ assay, DIV14 neurons were washed with HBSS and treated with freshly prepared CoroNa green‐AM dye (ThermoFisher, cat # C36676) and incubated for 45 min in 37°C. […] RFU values of background control and treatments were plotted to identify the effect of CNS4 on NMDA‐induced Na^+ flux in the neurons.

GluN1/2D = GluN1/2D (UniProt O15399+P35439); experiment: TEVC electrophysiology dose–response in xenopus oocytes; assay type: cell-based; design: host or cells: Xenopus oocytes (cRNA injection)
GluN1/2D, sequence (O15399 28-1336, other chains not shown): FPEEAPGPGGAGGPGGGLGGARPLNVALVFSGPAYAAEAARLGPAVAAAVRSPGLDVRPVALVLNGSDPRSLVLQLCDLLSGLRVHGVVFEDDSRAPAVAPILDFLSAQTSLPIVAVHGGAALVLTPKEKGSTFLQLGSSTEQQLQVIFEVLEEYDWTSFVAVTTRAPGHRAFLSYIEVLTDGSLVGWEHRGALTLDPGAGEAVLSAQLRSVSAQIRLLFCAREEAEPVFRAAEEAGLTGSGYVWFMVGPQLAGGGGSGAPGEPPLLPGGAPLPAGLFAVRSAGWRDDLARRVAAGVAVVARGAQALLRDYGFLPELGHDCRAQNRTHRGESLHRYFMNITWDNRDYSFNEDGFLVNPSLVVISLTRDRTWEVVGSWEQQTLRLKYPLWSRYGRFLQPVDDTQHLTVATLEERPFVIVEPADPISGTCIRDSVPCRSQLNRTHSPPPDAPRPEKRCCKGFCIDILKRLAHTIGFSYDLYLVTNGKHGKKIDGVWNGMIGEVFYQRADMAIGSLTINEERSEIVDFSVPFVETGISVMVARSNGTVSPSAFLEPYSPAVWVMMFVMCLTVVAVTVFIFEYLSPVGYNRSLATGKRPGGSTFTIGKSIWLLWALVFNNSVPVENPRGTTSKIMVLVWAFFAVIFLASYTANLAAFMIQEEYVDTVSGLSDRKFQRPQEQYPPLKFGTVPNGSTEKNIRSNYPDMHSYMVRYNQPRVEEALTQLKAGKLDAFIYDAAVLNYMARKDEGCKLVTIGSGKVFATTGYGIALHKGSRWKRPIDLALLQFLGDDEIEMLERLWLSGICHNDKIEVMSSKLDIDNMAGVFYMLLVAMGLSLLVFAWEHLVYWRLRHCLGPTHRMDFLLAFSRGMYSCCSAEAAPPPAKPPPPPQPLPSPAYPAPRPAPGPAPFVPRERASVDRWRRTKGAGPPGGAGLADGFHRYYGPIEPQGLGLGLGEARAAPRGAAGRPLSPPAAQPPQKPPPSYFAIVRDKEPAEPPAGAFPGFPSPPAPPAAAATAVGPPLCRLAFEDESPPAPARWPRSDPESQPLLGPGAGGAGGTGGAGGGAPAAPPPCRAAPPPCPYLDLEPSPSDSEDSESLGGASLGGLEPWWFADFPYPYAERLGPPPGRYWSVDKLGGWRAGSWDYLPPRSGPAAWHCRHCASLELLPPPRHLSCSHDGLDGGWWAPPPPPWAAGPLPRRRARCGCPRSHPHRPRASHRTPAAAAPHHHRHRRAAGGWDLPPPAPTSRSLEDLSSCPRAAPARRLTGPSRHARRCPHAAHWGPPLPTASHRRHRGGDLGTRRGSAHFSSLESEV

GluN1/2A [3] = biological target: T1, GluN1/2A (UniProt P35439+Q12879); design: method as in PMID 30553788; details: at −60 mV; read-out: Mg^2+ IC50; cited from earlier work
T1 sequence (Q12879 23-1464, other chains not shown): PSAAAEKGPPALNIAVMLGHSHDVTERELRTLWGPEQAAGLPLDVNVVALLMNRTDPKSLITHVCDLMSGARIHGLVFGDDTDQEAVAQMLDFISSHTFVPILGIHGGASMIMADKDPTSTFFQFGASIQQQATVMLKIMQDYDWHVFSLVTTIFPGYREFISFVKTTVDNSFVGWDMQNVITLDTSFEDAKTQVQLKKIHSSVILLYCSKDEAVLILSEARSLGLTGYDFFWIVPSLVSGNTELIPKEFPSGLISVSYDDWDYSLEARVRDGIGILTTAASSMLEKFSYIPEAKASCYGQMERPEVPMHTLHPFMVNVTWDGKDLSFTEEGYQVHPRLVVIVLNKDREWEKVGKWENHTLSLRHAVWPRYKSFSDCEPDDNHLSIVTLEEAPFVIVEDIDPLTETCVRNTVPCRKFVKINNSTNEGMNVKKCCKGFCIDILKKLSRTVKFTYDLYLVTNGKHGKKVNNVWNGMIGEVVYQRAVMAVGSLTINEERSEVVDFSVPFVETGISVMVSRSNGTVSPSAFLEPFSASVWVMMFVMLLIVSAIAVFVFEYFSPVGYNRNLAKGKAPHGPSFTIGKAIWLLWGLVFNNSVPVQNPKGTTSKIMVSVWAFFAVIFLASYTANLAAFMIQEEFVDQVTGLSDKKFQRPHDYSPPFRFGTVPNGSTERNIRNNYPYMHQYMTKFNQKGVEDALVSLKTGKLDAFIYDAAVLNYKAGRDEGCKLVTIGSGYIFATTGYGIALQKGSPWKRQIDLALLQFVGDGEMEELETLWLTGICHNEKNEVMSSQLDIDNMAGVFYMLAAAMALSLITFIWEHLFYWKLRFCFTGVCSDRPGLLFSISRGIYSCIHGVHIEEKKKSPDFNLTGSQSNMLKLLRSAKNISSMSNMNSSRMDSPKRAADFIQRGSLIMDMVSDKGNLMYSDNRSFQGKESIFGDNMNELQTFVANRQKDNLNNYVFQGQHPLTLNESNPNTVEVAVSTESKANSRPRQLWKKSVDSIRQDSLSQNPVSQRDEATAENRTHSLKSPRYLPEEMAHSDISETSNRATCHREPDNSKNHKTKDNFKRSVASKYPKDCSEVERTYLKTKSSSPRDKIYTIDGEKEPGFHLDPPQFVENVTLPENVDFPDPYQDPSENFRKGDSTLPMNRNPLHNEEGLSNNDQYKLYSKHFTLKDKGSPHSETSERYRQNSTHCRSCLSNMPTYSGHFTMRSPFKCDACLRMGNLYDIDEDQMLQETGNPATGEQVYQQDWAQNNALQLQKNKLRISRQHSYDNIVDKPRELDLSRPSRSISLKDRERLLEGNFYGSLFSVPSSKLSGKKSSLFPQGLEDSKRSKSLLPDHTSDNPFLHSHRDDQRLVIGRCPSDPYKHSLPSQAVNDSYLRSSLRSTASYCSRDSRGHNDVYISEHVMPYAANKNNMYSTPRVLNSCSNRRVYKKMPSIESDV

[4] = tested on: cultured rat brain cerebellar neurons; experiment: Dynamic calcium assay (Fluo‐8); assay type: cell-based; details: 300 µM NMDA alone
Description: as §1
(§2) Dynamic calcium assay was carried out, using Fluo‐8 no‐wash kit (abcam, ab112129), as per the manufacturer's instructions with minor modifications to fit with experimental necessities. On DIV14, all 200 μl of media was removed and replaced it with 100 μl of HBSS and 100 μl of Fluo‐8 dye loading solution. The plates were incubated at 37°C for 30 min and at room temperature for 30 min. A volume of 100 µL of test chemicals (3× of desired final concentration) was added to the plates immediately before running the calcium flux assay and read the fluorescence intensity at 490/525 nm (ex/em) using Synergy microplate reader, BioTek, VT. Costar 96‐well clear bottom black side plates were read from the bottom, nine times, with 60 s intervals between each read. Temperature was set at 37°C and reading speed was 100 ms.

[5] = tested on: cultured rat brain striatal neurons; experiment: Dynamic calcium assay (Fluo‐8); assay type: cell-based; details: 300 µM NMDA alone
Description: as §1, §2

[6] = tested on: cultured rat brain cerebellar neurons; experiment: Na^+ assay (CoroNa green‐AM); assay type: cell-based; details: 300 µM NMDA alone
Description: as §1
(§3) For Na^+ assay, DIV14 neurons were washed with HBSS and treated with freshly prepared CoroNa green‐AM dye (ThermoFisher, cat # C36676) and incubated for 45 min in 37°C. Plates were washed twice with HBSS before adding drug solutions dissolved in HBSS, and read at 492/516 nm (ex/em) using a plate reader. RFU values of background control and treatments were plotted to identify the effect of CNS4 on NMDA‐induced Na^+ flux in the neurons.

[7] = tested on: cultured rat brain striatal neurons; experiment: Na^+ assay (CoroNa green‐AM); assay type: cell-based; details: 300 µM NMDA alone
Description: as §1, §3

GluN1/2A [8] = biological target: T1, GluN1/2A; experiment: TEVC electrophysiology dose–response in xenopus oocytes; assay type: cell-based

EC50 (GluN1/2D): 0.34 ± 0.01 µM
Molecule: N[C@@H](CCC(=O)O)C(=O)O [glutamate, L‐glutamic acid, reference compound]
Ca^2+ signal, mean rfu ([1]; 100 µM glutamate, Figure 8A, baseline 7673): 21956 rfu
Na^+ signal, mean rfu ([2]; 100 µM glutamate, Figure 8B, baseline vs glutamate 514004 vs. 505677, p = .4055): 505677 rfu

Molecule: [Cl-].[Cl-].[Mg+2] [MgCl2]
IC50 (GluN1/2A [3]): 40 µM

Molecule: picrotoxin [reference compound]
effect on GABA mediated reduction of baseline Ca^2+ response ([1]; 50 µM picrotoxin + 100 µM GABA): unaltered

Molecule: CN[C@H](CC(=O)O)C(=O)O [NMDA, N‐methyl D‐aspartate, reference compound]
Ca^2+ signal, mean rfu ([1]; 300 µM NMDA alone): 26711 rfu
Ca^2+ signal, rfu [4]: 12810 rfu
Ca^2+ signal, mean rfu [5]: 20964 rfu
Na^+ signal compared to the background control [6]: did not significantly increase
Na^+ signal compared to the background control [7]: did not significantly increase

Molecule: CC(C(O)c1ccc(O)cc1)N1CCC(Cc2ccccc2)CC1 (stereo not shown) [ifenprodil, reference compound]
IC50 (GluN1/2A [8]): 202 ± 25.1 µM

Molecule: C[N+](C)(C)CCCCCC[N+](C)(C)C [Hexamethonium, reference compound]
Ca^2+ signal, mean rfu ([1]; 50 µM hexamethonium + 100 µM acetylcholine, p > .9999 vs acetylcholine (6222)): 6228 rfu

Molecule: NCCCC(=O)O [GABA, reference compound]
Ca^2+ signal, mean rfu ([1]; 100 µM GABA, baseline 7673, p < .0001): 4196 rfu

Molecule: CC(=O)OCC[N+](C)(C)C [acetylcholine, reference compound]
Ca^2+ signal, mean rfu ([1]; 100 µM acetylcholine, baseline 7673, p < .0001): 6222 rfu

Molecule: CC12CC3CC(C)(C1)CC(N)(C3)C2 [memantine, reference compound]
effect on NMDA‐induced Ca^2+ signal ([1]; 50 µM memantine added to NMDA, Figure 6): reversed the NMDA‐induced Ca^2+ signal back to the control level
Na^+ signal, mean rfu ([2]; NMDA plus 50 µM memantine, p < .01 vs NMDA alone (400251)): 412868 rfu
